Measured values as given in patent US8822462B2, “Subunit selective NMDA receptor potentiators for the treatment of neurological conditions” (Emory University, priority 2009, dated 2014).

Assays:
[1] = molecular target: T1, NR1/NR2C (Homo sapiens, UniProt Q05586+Q14957); test: Two electrode voltage clamp, Xenopus laevis oocytes expressing NR1/NR2C; assay type: cell-based; conditions: for activity at 100 µM: read-out: 2C percent effect at the maximum tested concentration; for IC50: fitted to composite concentration-effect data, read-out: 2C IC50; for Emax: maximal effect of fit, read-out: 2C Max
T1 construct: expressed in transfected cells; host or cells: Xenopus laevis oocytes
T1 sequence (Q14957 20-1233, species assumed, other chains not shown): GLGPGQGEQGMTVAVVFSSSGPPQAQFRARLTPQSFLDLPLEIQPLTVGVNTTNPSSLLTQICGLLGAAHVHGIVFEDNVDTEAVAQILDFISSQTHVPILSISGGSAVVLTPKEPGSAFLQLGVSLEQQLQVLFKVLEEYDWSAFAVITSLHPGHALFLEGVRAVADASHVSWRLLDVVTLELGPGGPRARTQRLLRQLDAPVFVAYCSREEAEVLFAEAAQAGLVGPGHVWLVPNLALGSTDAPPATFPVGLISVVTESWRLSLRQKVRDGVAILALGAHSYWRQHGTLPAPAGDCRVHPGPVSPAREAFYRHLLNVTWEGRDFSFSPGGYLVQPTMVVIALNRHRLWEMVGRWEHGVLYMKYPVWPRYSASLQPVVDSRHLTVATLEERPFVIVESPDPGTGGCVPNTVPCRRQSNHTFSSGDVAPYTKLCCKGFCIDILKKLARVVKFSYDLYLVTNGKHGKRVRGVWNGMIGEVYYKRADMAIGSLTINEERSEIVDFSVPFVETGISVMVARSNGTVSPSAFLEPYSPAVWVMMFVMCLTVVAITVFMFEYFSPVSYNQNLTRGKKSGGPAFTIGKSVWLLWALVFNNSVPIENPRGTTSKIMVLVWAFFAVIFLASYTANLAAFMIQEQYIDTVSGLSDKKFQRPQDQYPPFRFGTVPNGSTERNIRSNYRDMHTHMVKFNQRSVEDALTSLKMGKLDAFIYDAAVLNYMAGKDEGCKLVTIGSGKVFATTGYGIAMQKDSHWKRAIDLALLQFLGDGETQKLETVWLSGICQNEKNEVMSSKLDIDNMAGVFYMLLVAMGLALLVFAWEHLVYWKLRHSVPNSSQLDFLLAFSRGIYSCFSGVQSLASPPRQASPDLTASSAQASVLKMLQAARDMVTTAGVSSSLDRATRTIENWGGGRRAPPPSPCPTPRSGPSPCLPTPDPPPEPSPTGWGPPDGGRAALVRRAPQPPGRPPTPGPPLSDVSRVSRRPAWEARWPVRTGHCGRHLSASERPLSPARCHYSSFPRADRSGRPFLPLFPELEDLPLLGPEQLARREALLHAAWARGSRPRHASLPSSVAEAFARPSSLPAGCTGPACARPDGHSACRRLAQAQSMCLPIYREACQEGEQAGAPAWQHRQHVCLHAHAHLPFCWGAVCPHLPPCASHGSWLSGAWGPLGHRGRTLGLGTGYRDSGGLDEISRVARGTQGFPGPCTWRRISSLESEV
Excerpt: Values are mean+SEM (n=14-20). […] C is the closed level; broken line is the open level.
The Hill slope at both receptors for all analogues was greater than 1, consistent with a cooperative effect of binding at two sites.
(§1) In the table above, potency is expressed as fitted EC50 value to average composite concentration-effect data constructed from current responses recorded under two electrode voltage clamp from Xenopus laevis oocytes expressing either NR1/NR2A, B, C, or D, GluR1, or GluR6. No effect means less than 20% change in response amplitude at 30 μM of drug.

[2] = molecular target: T2, NR1/NR2B (Homo sapiens, UniProt Q05586+Q13224); test: Two electrode voltage clamp, Xenopus laevis oocytes expressing NR1/NR2B; assay type: cell-based; conditions: for IC50: fitted to composite concentration-effect data, Max 0 = inhibition, read-out: 2B IC50
T2 construct: expressed in transfected cells; host or cells: Xenopus laevis oocytes
Procedure: as §1

[3] = molecular target: T3, NR1/NR2A (Homo sapiens, UniProt Q12879); test: Two electrode voltage clamp, Xenopus laevis oocytes expressing NR1/NR2A; assay type: cell-based; conditions: read-out: 2A percent effect at the maximum tested concentration
T3 construct: expressed in transfected cells; host or cells: Xenopus laevis oocytes
T3 sequence (Q12879 23-1464, species assumed, other chains not shown): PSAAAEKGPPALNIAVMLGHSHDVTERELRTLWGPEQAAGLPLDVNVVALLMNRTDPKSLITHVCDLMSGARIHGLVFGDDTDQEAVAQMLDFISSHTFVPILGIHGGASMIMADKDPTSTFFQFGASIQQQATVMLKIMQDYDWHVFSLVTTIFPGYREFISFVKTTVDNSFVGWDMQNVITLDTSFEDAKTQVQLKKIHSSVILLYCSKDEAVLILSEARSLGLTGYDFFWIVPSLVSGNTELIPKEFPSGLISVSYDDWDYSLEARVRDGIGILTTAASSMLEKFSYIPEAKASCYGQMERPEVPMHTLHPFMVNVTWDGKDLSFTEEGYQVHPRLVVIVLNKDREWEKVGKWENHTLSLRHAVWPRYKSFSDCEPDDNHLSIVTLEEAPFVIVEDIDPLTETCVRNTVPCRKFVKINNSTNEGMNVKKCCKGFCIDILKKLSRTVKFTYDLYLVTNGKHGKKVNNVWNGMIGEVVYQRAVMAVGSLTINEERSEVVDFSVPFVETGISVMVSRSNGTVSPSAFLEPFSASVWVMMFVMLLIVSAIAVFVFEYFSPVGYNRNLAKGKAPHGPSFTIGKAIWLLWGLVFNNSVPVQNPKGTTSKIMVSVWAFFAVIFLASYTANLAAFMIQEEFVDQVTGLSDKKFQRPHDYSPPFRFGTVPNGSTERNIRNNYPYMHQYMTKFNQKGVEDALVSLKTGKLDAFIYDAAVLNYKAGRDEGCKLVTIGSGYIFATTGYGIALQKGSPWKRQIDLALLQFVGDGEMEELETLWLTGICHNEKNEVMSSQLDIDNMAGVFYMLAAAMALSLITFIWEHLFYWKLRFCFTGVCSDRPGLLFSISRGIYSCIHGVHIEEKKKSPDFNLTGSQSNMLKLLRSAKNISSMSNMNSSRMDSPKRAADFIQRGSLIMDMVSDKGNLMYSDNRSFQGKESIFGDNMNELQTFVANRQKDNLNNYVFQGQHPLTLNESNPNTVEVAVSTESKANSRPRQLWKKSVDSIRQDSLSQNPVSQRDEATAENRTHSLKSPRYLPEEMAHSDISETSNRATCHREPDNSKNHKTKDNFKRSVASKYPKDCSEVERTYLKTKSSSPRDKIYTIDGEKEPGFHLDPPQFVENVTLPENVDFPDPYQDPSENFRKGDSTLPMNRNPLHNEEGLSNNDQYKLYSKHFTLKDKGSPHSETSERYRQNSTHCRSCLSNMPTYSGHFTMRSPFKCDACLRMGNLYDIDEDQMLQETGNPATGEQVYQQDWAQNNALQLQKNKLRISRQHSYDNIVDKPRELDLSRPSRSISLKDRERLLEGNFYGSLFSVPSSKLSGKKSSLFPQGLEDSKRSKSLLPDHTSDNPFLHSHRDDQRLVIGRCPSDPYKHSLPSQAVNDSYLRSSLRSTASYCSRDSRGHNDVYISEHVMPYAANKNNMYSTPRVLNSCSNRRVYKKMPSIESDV
Procedure: as §1

[4] = molecular target: NR1/NR2D (Homo sapiens, UniProt O15399+Q05586); test: Two electrode voltage clamp, Xenopus laevis oocytes expressing NR1/NR2D; conditions: for activity at 100 µM: read-out: 2D percent effect at the maximum tested concentration, at 100 μM; for Emax: read-out: 2D Max; for activity at 30 µM: read-out: 2D percent effect at the maximum tested concentration, at 30 μM
NR1/NR2D, sequence (O15399 28-1336, species assumed, other chains not shown): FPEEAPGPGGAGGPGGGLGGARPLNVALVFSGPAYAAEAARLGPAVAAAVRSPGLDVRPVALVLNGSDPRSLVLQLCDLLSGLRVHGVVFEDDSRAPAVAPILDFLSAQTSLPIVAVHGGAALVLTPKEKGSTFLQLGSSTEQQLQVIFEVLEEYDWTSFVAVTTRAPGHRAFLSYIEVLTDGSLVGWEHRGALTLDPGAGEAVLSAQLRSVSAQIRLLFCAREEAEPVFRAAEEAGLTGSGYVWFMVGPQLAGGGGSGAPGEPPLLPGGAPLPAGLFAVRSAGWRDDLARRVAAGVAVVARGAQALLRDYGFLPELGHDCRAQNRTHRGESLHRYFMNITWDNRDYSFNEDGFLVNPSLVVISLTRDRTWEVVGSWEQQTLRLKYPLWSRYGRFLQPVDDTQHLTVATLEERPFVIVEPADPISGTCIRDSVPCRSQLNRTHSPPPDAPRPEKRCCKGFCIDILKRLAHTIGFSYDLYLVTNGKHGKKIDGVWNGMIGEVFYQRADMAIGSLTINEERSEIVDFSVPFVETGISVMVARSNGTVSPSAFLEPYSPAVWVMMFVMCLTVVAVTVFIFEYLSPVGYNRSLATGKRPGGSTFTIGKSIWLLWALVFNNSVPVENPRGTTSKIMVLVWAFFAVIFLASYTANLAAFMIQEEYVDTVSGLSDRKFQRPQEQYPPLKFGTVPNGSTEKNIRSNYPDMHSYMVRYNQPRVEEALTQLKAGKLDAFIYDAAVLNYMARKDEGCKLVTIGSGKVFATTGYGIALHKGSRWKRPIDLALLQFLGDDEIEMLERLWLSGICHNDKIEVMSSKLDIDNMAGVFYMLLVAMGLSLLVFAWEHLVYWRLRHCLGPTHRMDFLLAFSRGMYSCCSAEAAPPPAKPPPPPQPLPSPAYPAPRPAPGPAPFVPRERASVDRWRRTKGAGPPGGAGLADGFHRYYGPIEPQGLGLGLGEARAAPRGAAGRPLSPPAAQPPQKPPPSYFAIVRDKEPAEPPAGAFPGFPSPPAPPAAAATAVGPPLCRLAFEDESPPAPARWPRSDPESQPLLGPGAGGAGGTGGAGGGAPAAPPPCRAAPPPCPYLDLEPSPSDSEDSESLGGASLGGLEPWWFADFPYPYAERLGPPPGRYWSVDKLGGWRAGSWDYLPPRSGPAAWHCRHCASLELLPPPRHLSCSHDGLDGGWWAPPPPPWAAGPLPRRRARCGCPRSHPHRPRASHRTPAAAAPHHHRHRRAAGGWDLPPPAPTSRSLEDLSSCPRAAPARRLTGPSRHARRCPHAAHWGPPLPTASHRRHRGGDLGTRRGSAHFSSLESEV

[5] = read-out: 2B percent effect at the maximum tested concentration

Compound	activity at 100 µM [1] [%]	activity at 100 µM [2, 5] [%]	activity at 100 µM [3] [%]	activity at 100 µM [4] [%]	IC50 [1] [µM]	Emax [1] [%]	further results
COc1ccc(OCC2c3cc(OC)c(OC)cc3CCN2C(=O)c2cccc(O)c2)cc1 (stereo not drawn) [1180-3]	81	78	126	79			
COc1cc2c(cc1OC)C(COc1ccccc1)N(C(=O)c1ccccc1)CC2 (stereo not drawn) [1180-2]	77	101	100	81			
CCc1cc(C(=O)O)c(NC(=O)c2ccc(C(C)(C)C)cc2)s1 [compound 1421]		100	106		41	159	IC50 [4]: 35 µM; Emax [4]: 152%
COc1ccc(OCC2c3cc(OC)c(OC)cc3CCN2C(=O)c2cccc(Cl)c2Cl)cc1 (stereo not drawn) [1180-12]					2	133	activity at 30 µM [2, 5]: 90%; activity at 30 µM [3]: 97%; activity at 30 µM [4]: 109%
COc1ccc(OCC2c3c(cc(OC)cc3OC)CCN2C(=O)c2cccc(Cl)c2)cc1 (stereo not drawn) [1180-20]		86	92		11	253	IC50 [4]: 18 µM; Emax [4]: 271%
COc1ccc(NC(O)C2CN(C(C)C)C(=O)c3cc(OC)c(OC)cc32)c(OC)c1 (stereo not drawn) [compound 1440]	71	90	123	82			
COc1cc2c(cc1OC)C(COc1ccccc1OC)N(C(=O)c1cccc(Cl)c1)CC2 (stereo not drawn) [1180-8]	73	89	99	84			
COc1ccc(OCC2c3cc(OC)c(OC)cc3CCN2C(=O)c2cccc(Cl)c2)cc1 (stereo not drawn) [compound 1390]		82	115		3	215	IC50 [4]: 3 µM; Emax [4]: 205%
COc1ccc(OCC2c3cc(OC)c(OC)cc3CCN2C(=O)c2ccco2)cc1 (stereo not drawn) [1180-4]	100	69	105	89			
COc1ccc(OCC2c3cc(OC)c(OC)cc3CCN2C(=O)c2cccc(I)c2)cc1 (stereo not drawn) [1180-11]					31	431	activity at 30 µM [2, 5]: 82%; activity at 30 µM [3]: 84%; activity at 30 µM [4]: 111%
CC(C)(C)c1ccc(C(=O)Nc2ccccc2C(=O)O)cc1 [compound 1479]	102	97	94	113			
CCN1CC(C(O)Nc2ccc(OC)cc2OC)c2cc(OC)c(OC)cc2C1=O (stereo not drawn) [compound 1439]	84	96	99	89			
COC(=O)c1ccc(OCC2c3cc(OC)c(OC)cc3CCN2C(=O)c2cccc(Cl)c2)cc1 (stereo not drawn) [compound 1444]	102	68	91	111			
CSC1=NCCN1C(=O)c1ccc(C)cc1 [compound 1344]	88		78	97			IC50 [2]: 174 µM
CC(C)(C)c1ccc(CSc2nc(N)cc(O)n2)cc1 [compound 1563]			91		39	424	IC50 [2]: 24 µM; IC50 [4]: 68 µM; Emax [4]: 614%
Cc1csc(C(=O)O)c1NC(=O)c1ccc(C(C)(C)C)cc1 [compound 1428]	80	70	105	72			
Cc1cc(C(=O)O)c(NC(=O)c2ccc(C(C)(C)C)cc2)s1 [compound 1357]		102	102		175	388	IC50 [4]: 120 µM; Emax [4]: 326%
COc1ccc(OCC2c3cc(OC)c(OC)cc3CCN2Cc2ccccc2)cc1 (stereo not drawn) [1180-17]	95	90		83			activity at 20 µM ([3]; at 20 μM): 50%
COc1ccc(OCC2c3cc(OC)c(OC)cc3CCN2C(=O)c2cccc(C)c2)cc1 (stereo not drawn) [compound 1425]		94	74		5	208	IC50 [4]: 5 µM; Emax [4]: 172%
CC(C)c1ccc(C(=O)Nc2sccc2C(=O)O)cc1 [compound 1488]	82	83	98	80			

Compound	activity at 100 µM [1] [%]	activity at 100 µM [2, 5] [%]	activity at 100 µM [3] [%]	activity at 100 µM [4] [%]	IC50 [1] [µM]	Emax [1] [%]	further results
CCOc1ccc(-c2csc(NC(=O)c3ccc(C(C)(C)C)cc3)c2C(=O)O)cc1 [compound 1423]			121		26	323	IC50 [2]: 18 µM; IC50 [4]: 25 µM; Emax [4]: 370%
COc1ccc(OCC2c3cc(OC)c(OC)cc3CCN2C(=O)c2cccnc2)cc1 (stereo not drawn) [compound 1485]	82	85	75	74			
CC(C)(C)c1ccc(NC(=O)C2CC=CCC2C(=O)O)cc1 (stereo not drawn) [compound 1480]	86	83	92	85			
CCc1ccc(C(=O)Nc2sccc2C(=O)O)cc1 [compound 1489]	83	78	95	76			
COc1ccc(OCC2c3cc(OC)c(OC)cc3CCN2C(=O)c2ccc(C)cc2)cc1 (stereo not drawn) [compound 1371]	89	70	73	100			
O=C(O)c1c(NC(=O)c2cccc3ccccc23)sc2c1CCC2 [compound 1441]	78		81	86			IC50 [2]: 43 µM
Cc1cc(NC(=O)c2ccc(C(C)(C)C)cc2)no1 [compound 1401]	97	87	105	86			
COc1ccc(OCC2c3cc(OC)c(OC)cc3CCN2C(=O)c2ccccn2)cc1 (stereo not drawn) [compound 1484]	76	80	100	84			
COc1cc2c(cc1OC)C(COc1ccc(F)cc1)N(C(=O)c1cccc(F)c1)CC2 (stereo not drawn) [compound 1394]	71	61	101	68			
COc1ccc(OCC2c3cc(OC)c(OC)cc3CCN2S(=O)(=O)c2ccccc2)cc1 (stereo not drawn) [compound 1487]	69	71	89	79			
COc1ccc(/C=C/C2c3cc(OC)c(OC)cc3CCN2C(=O)c2cccc(Cl)c2)cc1 (stereo not drawn) [1180-31]					1.2	190	activity at 30 µM [2, 5]: 82%; activity at 30 µM [3]: 95%; IC50 [4]: 1.5 µM; Emax [4]: 172%
COc1ccc(NC(O)C2CN(C)C(=O)c3cc(OC)c(OC)cc32)c(OC)c1 (stereo not drawn) [compound 1438]	77	85	114	87			
COc1ccc(OCC2c3cc(OC)c(OC)cc3CCN2C(=O)c2cccc(F)c2)cc1 (stereo not drawn) [compound 1369]		84	94		7	184	IC50 [4]: 7 µM; Emax [4]: 169%
COc1cccc(OCC2c3cc(OC)c(OC)cc3CCN2C(=O)c2cccc(Cl)c2)c1 (stereo not drawn) [1180-6]	94	97	93	88			
COc1ccc(OCC2c3cc(OC)c(OC)cc3CCN2C(=O)c2ccc(F)c(Cl)c2)cc1 (stereo not drawn) [1180-18]		95	136		6	226	IC50 [4]: 7 µM; Emax [4]: 206%
COc1cc2c(cc1OC)C(COc1ccc(OCc3ccccc3)cc1)N(C(=O)c1cccc(Cl)c1)CC2 (stereo not drawn) [1180-22]	79		95	58			activity at 20 µM ([2]; at 20 μM, read-out: 2B percent effect at the maximum tested concentration): 50%
COc1ccc(OCC2c3cc(OC)c(OC)cc3CCN2C(=O)c2ccc(Br)cc2)cc1 (stereo not drawn) [compound 1393]	96	80	120	94			
CC(C)(C)c1ccc(C(=O)Nc2sc3c(c2C(=O)O)CCC3)cc1 [compound 1399]		108	100		77	301	IC50 [4]: 26 µM; Emax [4]: 261%
COc1ccc(OCC2c3cc(OC)c(OC)cc3CCN2C(=O)c2ccno2)cc1 (stereo not drawn) [1180-5]	83	86	98	81			
